Results reported in patent publication US20070122870A1, “Method for water testing and devices and kit of components for use in such a method” (priority 2003, published 2007).
“Also recorded” adds a separate entry of the source.

Columns and labels:
V. natriegens [1] = assay: Growth dynamics (optical density, cell concentration) in closed cultures; assay type: cell-based, Vibrio natriegens; details: closed culture; for bacterial growth (growth curve, growth rate, optical density, cell concentration): compared to the non-toxic control
Text: (ii) Sterile, 12-ml capacity, screw-capped, clear polystyrene test tubes (Starstedt) were selected as the most appropriate closed system for use in ECOALERT experiments. These test tubes are ideal for short-term cell culturing where aeration is not critical. Also, the optical density of the culture can be read as often as desired, by simply inserting the same tube in a spectrophotometer, thus avoiding contamination risks and reducing analysis time.
(viii) The effect of a range of contaminants on growth dynamics and sub-cellular bioindicators in closed cultures of V. natriegens was studied:
(xi) The sensitivity of cultures of V. natriegens to a range of contaminants in closed laboratory experimental systems was studied at specified toxic concentrations and time scales.

V. natriegens [2] = assay: Respiration (CTC fluorescence) in closed cultures; assay type: cell-based, Vibrio natriegens; details: closed culture; for respiration: compared to the non-toxic control
Experimental: (vi) The application of the redox dye CTC (5-cyano-2,3-ditolyl tetrazolium chloride, Polysciences Europe) was developed to direct fluorimetric determination of respiration in bacterial suspensions. […] Traditionally, CTC has been used with flow cytometry and epifluorescence microscopy, combined with DAPI to counterstain total cells. However, its application to bacterioplankton remains controversial.
An exponentially growing culture of V. natrigens was incubated with the redox dye CTC following the standard procedure (2.0 mM final concentration, 4 h at 28° C.) and samples were taken every 30 minutes to count total cells and CTC+ cells in the microscope.
(§1) (viii) The effect of a range of contaminants on growth dynamics and sub-cellular bioindicators in closed cultures of V. natriegens was studied: […]

V. natriegens [3] = assay: LIVE/DEAD BacLight membrane integrity, closed cultures; assay type: cell-based, Vibrio natriegens; details: closed culture
Experimental: (§2) (viii) Two ready-to-use commercial kits to assess cell viability (ProCheck™ Cell Viability Assay) and membrane integrity (LIVE/DEAD® BacLight™ Bacterial Viability Kit) were tested and adapted for using during ECOALERT experiments.
(§3) ProCheck™ is designed to measure the amount of viable, metabolising cells in a sample, and LIVE/DEAD® BacLight™ distinguish live and dead bacteria As a preliminary test, the two kits were tested in a volumetric series of mixtures of two bacterial types of V. natriegens: live, exponentially growing bacteria and dead bacteria killed by autoclaving an aliquot of the same culture. The colorimetric signal indicating cell viability (ProCheck™) and the fluorimetric signal indicating membrane integrity (LIVE/DEAD® BacLight™) increased linearly with the proportion of live bacteria in the mixture.

V. natriegens [4] = assay: ProCheck cell viability assay, closed cultures; assay type: cell-based, Vibrio natriegens; details: closed culture, compared with the non-toxic control
Experimental: as §2, §3

V. natriegens [5] = assay: DNA (thymidine uptake) and protein (leucine uptake) synthesis in closed cultures; assay type: cell-based, Vibrio natriegens; details: closed culture; for DNA synthesis / protein synthesis: compared to the control
Experimental: (iv) The application of the 3H-leucine method of Smith and Azam (Marine Microbial. Food Webs. 6(2), 107-114, 1992) was developed and also used with 3H-thymidine to estimate bacterial production. The synthesis of DNA (thymidine uptake) and protein (leucine uptake) was studied in V. natriegens closed cultures. In non-toxic cultures the uptake of both radiotracers by the bacteria reaches maximal values between 4 and 8 hours of the experiment, coinciding with the log-phase of the growth curve.
as §1

caged Pseudomonas sp. [6] = assay: Growth limitation (OD) of caged bacteria in dialysis tubes; assay type: cell-based
Experimental: On the night before the experiment, a number of 2-litre HDPE bottles, one bottle per toxicity treatment, were filled with water (3/4 seawater 1-μm filtered, 1/4 distilled water). The bottles were kept at 15° C. stirring at low speed.
The dialysis tubes, which are supplied soaked in sodium azide, were rinsed throughly, refilled with distilled water and UV-irradiated for 10 minutes to ensure sterility.
Also the night before, a fresh culture of bacteria was inoculated from the original stock in liquid diluted medium.
Before starting the toxicity assay, the bottles were spiked with the contaminant and buffered to pH 7.3. At the same time, a fresh volume of diluted medium was inoculated from the culture grown overnight and kept for ˜2 hours at 15° C. until the growth rate picked up again and OD540 approached 0.005.
Then, the dialysis tubes were emptied of the water and four of them topped up with the bacterial culture, plus one blank tube with medium-only (no bacteria), and placed into the bottle to start the assay. Each bottle could hold 5 dialysis tubes floating upright.
The stirring was kept low and at time intervals samples were removed from the tubes with sterile pipettes to measure the different bacterial indicators.
(ix) The growth dynamics of toxic cultures of caged Pseudomonas sp. were studied. The effect of toxicity on the growth of caged bacteria was studied in several assays where different concentrations of contaminants were added to the water of the tanks.

caged Pseudomonas sp. [7] = assay: Bacterial DNA indicator (PicoGreen) in toxic caged cultures; assay type: cell-based; details: caged toxicity assays
Text: Bacterial DNA. To improve the detection of bacterial DNA in culture samples, the PicoGreen double-strand DNA (dsDNA) reagent (Molecular Probes) was used instead of DAPI. PicoGreen reagent is more sensitive to small changes in the DNA content of bacterial cultures, resulting in a good correlation with OD.
(§4) (x) Bacterial sub-cellular indicators (DNA, respiration, membrane integrity and viability) were studied in toxic cultures of caged Pseudomonas sp.

Pseudomonas = assay: ECOALERT deployment in controlled flow-through system, respiration (CTC fluorescence); assay type: cell-based; details: after 72 hours; 50 ppb BPH, 5 ppb TBDE; 7.5° C.
Text: The experimental setup involved 16 tanks (4 animal species 4 exposure treatments) connected in a flow-through system with a direct intake of seawater from 80 m depth in the Stavanger fjord, outside the laboratory. For each one of the test animals, three tanks were connected to a chemostate system which maintained a constant concentration of each of the following chemicals: 50 ppb bisphenol A (BPH), 50 ppb diallyl phthalate (DAP), and 5 ppb tetrabromodiphenylether or PBDE-47 (TBDE). The forth tank had no chemical supply and was used as control. ECOALERT was deployed in the mussel tanks, one basket per tank. The water conditions in all the tanks were: 7.5° C. temperature, pH 7.78 and […].
Each deploying basket of ECOALERT was equipped with 3 dialysis tubes with Pseudomonas, 3 tubes filled with Vibrio natriegens and 3 dialysis tubes with medium-only without cells. Each dialysis tube was repeatedly sampled at 1, 24, 48 and 72 hours. Due to the low temperature of the water (7.5° C.) a low bacterial growth rate was expected and because of that the duration of the experiment was expanded to 72 hours. At every time-point, growth and respiration activity of the bacteria were measured as turbidity and CTC fluorescence respectively using the handheld CTC fluorometer/turbidimeter. […]

caged Pseudomonas sp. [8] = assay: Respiration indicator (CTC) in toxic caged cultures; assay type: cell-based; details: caged toxicity assays
Text: Respiration. Respiration was estimated with the redox dye CTC (Polysciences) as values of fluorescent intracellular formazan.
as §4

bacterial culture = assay: ECOALERT assay, ratio respiration/growth (CTC/TRB); assay type: cell-based; details: compared to the control
Experimental: Two bacterial endpoints were chosen based on the results from Example 2: growth and respiration. Growth is an endpoint at population level and is estimated by measuring in vivo optical density (OD) or turbidity (TRB). Respiration is an endpoint at subcellular level and is measured by the fluorescence emitted by actively respiring bacteria, using the CTC redox dye.
To assess OD, TRB and CTC as indicators of toxicity a series of ECOALERT assays were carried out on a wide range of chemical substances, with special attention to common pharmaceuticals but also including some contaminants cited in the OSPAR list for priority action (OSPAR 2000). The concentrations tested were based on toxicological and environmental levels, where this information was available.
Even when no clear effect could be observed in the CTC indicator alone, there was an advantage in using the bacterial indicators OD (or TRB) and CTC simultaneously. That was because it was possible to use the ratio respiration/growth, which is an estimator of the proportion of respiring or active bacteria in the population, as an indirect indicator of the health of the population.

[9] = compared with the non-toxic control

Cl[C@H]1[C@H](Cl)[C@@H](Cl)[C@@H](Cl)[C@H](Cl)[C@H]1Cl [Lindane]
bacterial growth (growth curve, growth rate, optical density, cell concentration) (V. natriegens [1]): transient, rather subtle stimulation; also recorded: transient, faint stimulation | respiration (V. natriegens [2]): transient, rather subtle stimulation; also recorded: transient, faint stimulation

[Cu] [Cu, copper]
membrane integrity (LIVE/DEAD BacLight) (V. natriegens [3]; [9]): damage of membranes | cell viability (ProCheck) (V. natriegens [4]): affecting cell viability | bacterial growth (growth curve, growth rate, optical density, cell concentration) (V. natriegens [1]): notable slow down of the growth curve; also recorded: very conspicuous and instantaneous reduction | bacterial growth (growth curve, growth rate, optical density, cell concentration) (V. natriegens [1]; listed as copper): nearly ceased | respiration (V. natriegens [2]): very conspicuous and instantaneous reduction | respiration (V. natriegens [2]; listed as copper): nearly ceased | DNA synthesis (V. natriegens [5]): nearly ceased | protein synthesis (V. natriegens [5]): nearly ceased | growth limitation (caged Pseudomonas sp. [6]; 20 mg/L, after 9 hours): 56% | effect on growth (caged Pseudomonas sp. [6]; additions under 0.1 mg/L): enhancing effect on growth | growth limitation (caged Pseudomonas sp. [6]; assays 1 (doses 0.001-10 mg Cu/L) and 2 (doses 0.02-20 mg Cu/L)): < 50% | DNA as indicator of toxicity (caged Pseudomonas sp. [7]): could not detect limitation

CC(C)(c1ccc(O)cc1)c1ccc(O)cc1 [BPH, bisphenol A]
bacterial respiration (Pseudomonas): clear negative effect; also recorded: had an impact on bacteria

[Zn] [zinc]
growth limitation (caged Pseudomonas sp. [6]; 50 mg/L, after 4 h): 51% | toxicity / effect on growth (caged Pseudomonas sp. [6]; first experiment, doses between 0.05-5 mg/L): No significant toxicity; also recorded: positive effect in most of the treatments | DNA as indicator of toxicity (caged Pseudomonas sp. [7]): sensitive indicator of toxicity

mercury [Hg]
growth limitation (caged Pseudomonas sp. [6]; 2 mg/L, 4 hours): Up to 60% | respiration as indicator of toxicity (caged Pseudomonas sp. [8]): most sensitive indicator of toxicity

[Cd] [Cd, cadmium]
growth limitation (caged Pseudomonas sp. [6]; 20 mg Cd/L, after 4 hours of exposure): 59% | growth limitation (caged Pseudomonas sp. [6]; lower Cd treatments): did not cause any clear limitation of bacterial growth | respiration as indicator of toxicity (caged Pseudomonas sp. [8]): most sensitive indicator of toxicity

Brc1cccc(Oc2ccc(Br)c(Br)c2Br)c1 [TBDE, tetrabromodiphenylether]
bacterial respiration (Pseudomonas): possible positive effect

NC(=O)N1c2ccccc2C=Cc2ccccc21 [carbamazepine, reference compound]
CTC/TRB ratio (bacterial culture): initial positive effect

c1ccc2c(c1)ccc1ccccc12 [Phenanthrene, phenanthrene]
bacterial growth (growth curve, growth rate, optical density, cell concentration) (V. natriegens [1]): did not affect bacterial growth significantly; also recorded: no major effect | respiration (V. natriegens [2]): No effect | protein synthesis (V. natriegens [5]): doubled; also recorded: small initial stimulation | DNA synthesis rates higher than control (V. natriegens [5]; on average): 30%

CC(C)(c1cc(Br)c(O)c(Br)c1)c1cc(Br)c(O)c(Br)c1 [TBBA]
membrane integrity (LIVE/DEAD BacLight) (V. natriegens [3]; stationary phase): membrane damage | increase in cellular respiration (ratio respiration/optical density) (V. natriegens [2]; average): more than 90% | respiration (V. natriegens [2]): sudden and important increase in respiration; also recorded: notable increase of respiration

[Pb] [lead]
growth limitation (caged Pseudomonas sp. [6]; 2 mg/L, 4 hours): 52% | respiration as indicator of toxicity (caged Pseudomonas sp. [8]): most sensitive indicator of toxicity

Oc1c(Cl)c(Cl)c(Cl)c(Cl)c1Cl [PCP]
CTC/TRB ratio (bacterial culture): loss of respiring cells

[Ni] [Ni, nickel]
growth limitation (caged Pseudomonas sp. [6]; 5 mg/L, end of a 9-h assay): 51% | growth limitation (caged Pseudomonas sp. [6]; 20 mg/L, after 9 hours): 69% | effect on growth (caged Pseudomonas sp. [6]; below 0.5 mg/L): seemed to favour growth

dodecylbenzensulfonic acid sodium salt [detergent]
membrane integrity (LIVE/DEAD BacLight) (V. natriegens [3]; [9]): progressive damage of cellular membranes with time | membrane integrity (LIVE/DEAD BacLight) (V. natriegens [3]; stationary phase): deleterious effect on membranes | size of bacteria (V. natriegens [1]; compared to control bacteria, sodium salt): progressively reduced their size; also recorded: reduces | bacterial growth (growth curve, growth rate, optical density, cell concentration) (V. natriegens [1]; sodium salt): increased over the control; also recorded: seems to enhance | reduction in bacterial numbers (V. natriegens [1]; instant): 10 fold | respiration (V. natriegens [2]; sodium salt): contrary to that of the non-toxic control; also recorded: seems to enhance | reduction in respiration (V. natriegens [2]; instant): 10 fold | DNA synthesis (V. natriegens [5]): increased slightly over the control | protein synthesis (V. natriegens [5]; sodium salt): inhibited but seems to recover after 48 h

c1cc2ccc3cccc4ccc(c1)c2c34 [Pyrene, pyrene]
membrane integrity (LIVE/DEAD BacLight) (V. natriegens [3]; stationary phase): loss of membrane integrity | bacterial growth (growth curve, growth rate, optical density, cell concentration) (V. natriegens [1]): no other effect was observed | increase in respiration (V. natriegens [2]; average): 14%
